Source: US20180184661A1, “Improved Herbicidal Composition, Method and Use” (Arysta LifeScience Benelux Sprl, priority 2015, published 2018)

Columns and labels:
Test in all cases: Pre-emergence field trial in citrus, residual broadleaf weed control
Format in all cases: in vivo
[1] = system: Sow thistle (Sonchus tenerrimus, SONTE); conditions: Spain, diuron 900 and/or oxyfluorfen 90 g a.i./ha, rated 15 to 90 days after application
Procedure: (§1) Field trials were conducted in citrus crops using standard herbicide small plot research methodology. Plots varied from 12 square meters (m^2) to 30 m^2 (2×15) with 3 to 4 replicates per treatment. The citrus crops were grown using normal cultural practices for the respective areas for the trials, using normal planting, fertilization, watering, flooding and maintenance for pests to ensure good growth of the crop and the weeds.
(§2) All treatments in the field trials were applied with a knapsack sprayer using compressed air as propellant. The sprayer was equipped with a boom and flat fan nozzles, and calibrated to apply homogeneously a spray volume of 200 to 400 litres/hectare at constant pressure.
(§3) Diuron in combination with oxyfluorfen, in the form of a ready for use formulation, was compared to a diuron formulation and an oxyfluorfen formulation, at dose rates of respectively […]., 900 g a.i./ha and 90 g a.i./ha.
(§4) Treatments were rated at different intervals from treatment to evaluation, from 15 to 120 days after application as compared to the untreated control plants. Assessment were done recording the percentage of ground covered by weeds and the visual efficacy on a scale of 0 to 100 percent where 0 corresponds to no weed control and 100 corresponds to complete weed control.
(§5) Trials were conducted under field conditions in Spain. Trial sites were located in commercially grown European citrus crop. The citrus trees were grown using normal cultural practices for fertilization, seeding and maintenance to ensure good growth of the crop and the weeds. The trials were conducted using normal research methodology. Plots varied from 12 square meters (m^2) to 30 m^2 (2×15) with 3 to 4 replicates per treatment. All treatment results are an average of 3 to 4 replicates. The trials had naturally occurring populations of weeds. The weed spectrum included, but was not limited to black nightshade (Solanum nigrum; SOLNI), Sow thistle (Sonchus tenerrimus, SONTE), fleabane (Conyza bonariensis, ERIBO), DIPER, hairy fleabane (Conyza bonariensis, ERIBO), redroot pigweed (Amaranthus retroflexus, AMA).
(§6) Treatments consisted applications of diuron+oxyfluorfen, diuron solo or oxyfluorfen solo. […] Colby's equation was used to determine the herbicidal effects expected from the mixtures (Colby, S. R. Calculation of the synergistic and antagonistic response of herbicide combinations. Weeds 1967, 15, 20-22.). The following equation was used to calculate the expected activity of mixtures containing two active ingredients, A and B:
(§7) A=observed efficacy of active ingredient A at the s e concentration as used in the mixture. B=observed efficacy of active ingredient B at the s e concentration as used in the mixture.
(§8) Ob=Observed visual weed control, Ex=Expected weed control as defined by Colby Equation

[2] = system: Wall-rocket (Diplotaxis erucoides, DIPER); conditions: trial SRES14 061 230 HE, Spain, diuron 900 and/or oxyfluorfen 90 g a.i./ha, rated 15 to 90 days after application
Procedure: as §1, §2, §3, §4, §5, §6, §7, §8

[3] = system: black nightshade (Solanum nigrum, SOLNI); conditions: trial SRES14 059 230 HE, Spain, diuron 900 and/or oxyfluorfen 90 g a.i./ha, rated 15 to 90 days after application
Procedure: as §1, §2, §3, §4, §5, §6, §7, §8

[4] = system: fleabane (Conyza bonariensis, ERIBO); conditions: Spain, diuron 900 and/or oxyfluorfen 90 g a.i./ha, rated 15 to 90 days after application
Procedure: as §1, §2, §3, §4, §5, §6, §7, §8

[5] = system: pigweed, redroot (Amaranthus retroflexus, AMARE); conditions: trial SRES14 061 230 HE, Spain, diuron 900 and/or oxyfluorfen 90 g a.i./ha, rated 15 to 90 days after application
Procedure: as §1, §2, §3, §4, §5, §6, §7, §8

Structure (SMILES)	% Control SONTE Obs ([1]; trial SRES14 059 230 HE) [%]	% Control SONTE Obs ([1]; trial SRES14 060 230 HE) [%]	% Control DIPER Obs [2] [%]	% Control SOLNI Obs [3] [%]	% Control ERIBO Obs ([4]; trial SRES14 059 230 HE) [%]	% Control ERIBO Obs ([4]; trial SRES14 060 230 HE) [%]	% Control ERIBO Obs ([4]; trial SRES14 061 230 HE) [%]	% Control AMARE Obs [5] [%]
CN(C)C(=O)Nc1ccc(Cl)c(Cl)c1 [Diuron, N′-(3,4-dichlorophenyl)-N,N-dimethylurea]	57.5	45	88.8	55	62.5	46.3	28.8	53.8
CCOc1cc(Oc2ccc(C(F)(F)F)cc2Cl)ccc1[N+](=O)[O-] [Oxyfluorfen, 2-chloro-1-(3-ethoxy-4-nitrophenoxy)-4-(trifluoromethyl)benzene]	28.8	10	20	47.5	35	47.5	43.8	45
